Assay results taken from US12472193B2, “Methods and compositions for treating and preventing respiratory related diseases and conditions with xylitol-headgroup lipid analogs” (National Jewish Health, priority 2017, dated 2025).
Entries after “also recorded” stand apart in the source; their conditions may differ.

Columns and labels:
[1] = target: T1, TLR 2/1 (Mus musculus, UniProt Q9EPQ1+Q9QUN7); assay: Pam3Cys-induced TNFα release by RAW264.7 cells (TLR 2/1 antagonism); format: cell-based; conditions: for suppression of TLR 2/1 activation (TNFα release): Pam3Cys, 4 hours; for TLR2/1 antagonist activity: reduction in cytokine secretion vs activating TLR ligand alone
T1 construct: endogenous in cells; host or cells: RAW264.7 (ATCC)
Description: The mouse macrophage cell line, RAW264.7, was obtained from ATCC and maintained in DMEM, supplemented with 10% bovine growth serum and 1× penicillin streptomycin. Cells were maintained at 37° C. with 5% carbon dioxide: 95% air atmosphere within the incubator. Experiments were completed in a 96-well plate where cells were seated at a density of 1×10^5 cells per well, 24 prior to stimulation with TLR agonists and antagonists. Lipids were dried under a stream of nitrogen, hydrated with phosphate-buffered saline (PBS) at 37° C. for one hour, followed by water bath sonication to create liposomes. Each condition for cell stimulation and antagonism was prepared in DMEM in a separate tube and consisted of: control, TLR agonist, TLR agonist+lipid, and lipid alone. 100 μL aliquots of medium+agonists+antagonists were added to each well and incubated at 37° C. for 4 hours. Subsequently, the media were collected, diluted and an enzyme-linked immunosorbent assay (ELISA) was performed to quantify TNFα release by cells.
The ability of xylitol lipid analogs to suppress the activation of TLR 2 heterodimers was assessed. Pam3Cys was used to selectively stimulate TLR 2/1 signaling in RAW264.7 cells and MALP-2 was used as a TLR 2/6 selective agonist also in RAW264.7 cells. RAW264.7 cells were stimulated with Pam3Cys in the absence, or presence of PX lipids for 4 hours. Following incubation, media were collected, diluted and analyzed for TNFα release as a consequence of TLR activation. Results for analog activity against TLR 2/1 activation was assessed at two concentrations of phospholipid and are summarized in FIGS. 4A and 4B.
Initially, activity of xylitol lipid analogs was assessed at 100 μg/mL and it was unclear whether there was a real antagonist effect especially when compared to POPG. Experiments were repeated with a 200 μg/mL concentration of lipid to determine the ability of PX lipids to suppress TLR 2/1 activation in the presence of Pam3Cys. […] DPPX could have an effect on TLR 2/1 signaling at high concentrations.

[2] = tested on: RSV; assay: Western blot analysis of phospholipid interference with RSV binding to HEp2 cells; format: cell-based, human RSV A2 strain; conditions: 50 μg/mL lipid, MOI 2.5, 2 hr
Description: HEp2 cells were plated in a 48-well plate at a density of 1×10^5 per well, 48-hours prior to performing binding studies. A multiplicity of infection (MOI) of 2.5 was used and conditions of a control with no RSV, RSV alone and RSV plus 50 μg/mL of selected lipids were added to cells for a 2-hour incubation at 18° C. This lower temperature was used so that RSV would adsorb to the cell surface with minimal endocytosis. After binding, cells were washed 4 times with cold PBS to remove any unattached virus. 80 μL of SDS-PAGE loading buffer (sample buffer+protease inhibitor+DTT) was added to each well and the plate was set in boiling water for 1 minute to lyse cells and solubilize proteins. Cell lysates were recovered by scraping and pipteing and stored at −20° C. Subsequently, thawed lysates were boiled for 5 min, and proteins were resolved on 8-16% gradient Tris-SDS-polyacrylamide gels. The separated proteins were transferred to nitrocellulose membranes and subsequently incubated in blocking buffer containing 20 mM Tris-HCl buffer (pH 7.6), 137 mM NaCl, 0.1% Tween 20, and 5% nonfat milk for 1 hour. After blocking, primary RSV antibody conjugated to HRP was diluted 1:500 in blocking solution, added to the membrane and incubated overnight at 4° C. The membranes were washed with TBS containing 0.1% Tween for 30 min, replacing the buffer every 10 min. The immunoreactive protein was detected using coumaric acid and luminol reagents and exposed to film. Developed films were scanned and Image J software was used for protein quantification. Beta-Actin was used a control for amount of protein loaded.
Because binding of lipid to RSV in a biochemical assay was not a good predictor of antiviral activity, PX lipids were tested for activity preventing viral attachment to the surface of cells. HEp2 cells were plated in a 48-well plate at a density of 1×10^5 per well, 48 hours prior to viral adsorption. RSV was added to cells at multiplicity of infection (MOI) 2.5 in the absence or presence of 50 μg/mL of select xylitol lipids. […] The moderately effective antiviral, DPPX was selected and the ineffective antiviral, 14:0 DEPX was selected. Viral adsorption to cells was performed at 18° C. to minimize endocytosis. RSV was incubated with HEp2 cells for 2 hours, rotating the plate every 30 minutes. Cells were washed with cold PBS to remove unbound virus and cells were lysed and collected. Cell lysates were electrophoresed on an SDS-PAGE gel, and transferred to nitrocellulose membrane. The RSV G protein was detected with antibody and Beta-actin was used as a protein loading control. The results are summarized and quantified in FIGS. 9A and 9B. In more detail, monolayers of HEp2 cells were incubated with RSV at a stoichiometry of 2.5 infectious particles/cell, at 0° C., to prevent endocytosis of virions. Following a 2 hr incubation the monolayers were washed three times with cold saline to remove unbound virus, and then the cells were harvested in a denaturing solution. The cell extracts were subjected to electrophoresis under reducing and denaturing conditions and the separated proteins were transferred to nitrocellulose. Viral proteins were detected by immunoblotting with polyclonal anti-RSV antibody and enhanced chemiluminescence. The immunoreactive bands were normalized using actin immunoblots. The immunoreactive viral proteins were quantified using Image J software. […] In contrast, POPG (PG) inhibits viral attachment by ˜85%, and the xylitol phospholipids 14:0 DEPX, POPX, 16:1 DPPX AND 18:1 DEPX inhibit viral attachment in the range of 80-90%.

T1 sequence (Q9QUN7 25-784): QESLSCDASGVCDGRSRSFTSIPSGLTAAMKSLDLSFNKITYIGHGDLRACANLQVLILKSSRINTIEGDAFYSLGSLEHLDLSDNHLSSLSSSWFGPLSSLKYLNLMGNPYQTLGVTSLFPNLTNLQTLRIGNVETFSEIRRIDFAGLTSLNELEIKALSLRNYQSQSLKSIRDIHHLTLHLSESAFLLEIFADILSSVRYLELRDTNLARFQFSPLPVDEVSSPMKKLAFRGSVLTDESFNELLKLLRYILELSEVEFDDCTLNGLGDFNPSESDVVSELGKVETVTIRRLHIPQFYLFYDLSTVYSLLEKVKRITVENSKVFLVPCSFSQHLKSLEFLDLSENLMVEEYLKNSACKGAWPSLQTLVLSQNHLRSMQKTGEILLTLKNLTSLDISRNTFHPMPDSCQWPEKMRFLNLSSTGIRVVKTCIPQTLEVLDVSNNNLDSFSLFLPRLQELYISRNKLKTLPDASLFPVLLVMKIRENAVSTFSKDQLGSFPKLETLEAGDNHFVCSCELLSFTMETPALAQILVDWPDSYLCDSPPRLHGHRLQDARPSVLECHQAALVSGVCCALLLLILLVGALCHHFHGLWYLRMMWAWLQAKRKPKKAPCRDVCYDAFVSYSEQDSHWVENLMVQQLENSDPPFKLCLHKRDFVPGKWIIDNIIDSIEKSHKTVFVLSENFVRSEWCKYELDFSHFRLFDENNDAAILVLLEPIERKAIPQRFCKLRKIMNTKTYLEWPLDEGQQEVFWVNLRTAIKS
T1 sequence (Q9EPQ1 25-795 limits assumed): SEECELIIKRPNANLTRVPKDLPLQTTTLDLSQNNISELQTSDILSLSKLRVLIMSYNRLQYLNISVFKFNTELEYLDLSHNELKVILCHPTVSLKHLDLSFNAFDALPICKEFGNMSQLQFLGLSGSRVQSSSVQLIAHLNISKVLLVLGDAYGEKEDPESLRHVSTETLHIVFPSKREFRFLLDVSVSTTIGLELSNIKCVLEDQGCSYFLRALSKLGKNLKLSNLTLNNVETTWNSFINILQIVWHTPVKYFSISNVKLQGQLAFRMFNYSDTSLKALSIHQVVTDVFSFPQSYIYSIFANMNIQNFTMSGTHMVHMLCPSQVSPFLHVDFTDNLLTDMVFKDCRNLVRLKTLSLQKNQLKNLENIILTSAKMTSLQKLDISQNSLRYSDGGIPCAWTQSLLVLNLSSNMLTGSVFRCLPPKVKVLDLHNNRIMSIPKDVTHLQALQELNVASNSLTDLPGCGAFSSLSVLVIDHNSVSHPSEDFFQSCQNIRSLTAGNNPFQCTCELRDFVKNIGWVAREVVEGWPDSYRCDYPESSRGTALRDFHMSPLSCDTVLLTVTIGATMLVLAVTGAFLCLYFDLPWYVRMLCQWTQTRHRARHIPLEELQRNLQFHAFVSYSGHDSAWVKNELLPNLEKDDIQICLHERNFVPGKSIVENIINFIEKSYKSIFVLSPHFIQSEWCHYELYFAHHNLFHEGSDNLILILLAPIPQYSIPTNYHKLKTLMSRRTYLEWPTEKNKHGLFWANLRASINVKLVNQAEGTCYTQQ

Structure (SMILES): CCCCCCCC/C=C\CCCCCCCC(=O)O[C@H](COC(=O)CCCCCCCCCCCCCCC)COP(=O)(O)OCC(O)CO (stereo partly drawn) [POPG, palmitoyl-oleoyl-phosphatidylglycerol, reference compound]
- suppression of TLR 2/1 activation (TNFα release) ([1]; 100 μg/mL lipid): markedly inhibited
- suppression of TLR 2/1 activation (TNFα release) ([1]; 200 μg/mL lipid): markedly inhibited
- inhibition of viral attachment to HEp2 cells [2]: ~85%

Structure (SMILES): CCCCCCCCCCCCCCCC(=O)OCC(COP(=O)(O)OCC(O)C(O)C(O)CO)OC(=O)CCCCCCCCCCCCCCC (stereo not drawn) [DPPX, sn-1-palmitoyl, sn-2-palmitoyl sn-3 glycerol phosphoxylitol]
- suppression of TLR 2/1 activation (TNFα release) ([1]; 200 μg/mL lipid): weakly effective
- inhibition of RSV attachment to HEp2 cells [2]: not inhibited; also recorded: did not

Structure (SMILES): CCCCCCCCCCCCCC(=O)OC[C@H](COP(=O)(O)OCC(O)C(O)C(O)CO)OC(=O)CCCCCCCCCCCCC (mixture of isomers) [DMPX, sn-1-myristoyl, sn-2-myristoyl sn-3 glycerol phosphoxylitol]
- suppression of TLR 2/1 activation (TNFα release) ([1]; 100 μg/mL lipid): ineffective at both concentrations
- suppression of TLR 2/1 activation (TNFα release) ([1]; 200 μg/mL lipid): not effective antagonists

Structure (SMILES): CCCCCCC=CCCCCCCCC(=O)OCC(COP(=O)(O)OCC(O)C(O)C(O)CO)OC(=O)CCCCCCCC=CCCCCCC (mixture of isomers) [16:1 DPPX, sn-1-palmitoleoyl, sn-2-palmitoleoyl sn-3 glycerol phosphoxylitol]
- suppression of TLR 2/1 activation (TNFα release) ([1]; 100 μg/mL lipid): did not appear to suppress activation
- suppression of TLR 2/1 activation (TNFα release) ([1]; 200 μg/mL lipid): inhibit TLR2/1 activation to almost the same extent as the bioactive lipid POPG; also recorded: strongly suppressed; also recorded: suppressed TLR 2/1 activation
- TLR2/1 antagonist activity [1]: + (cutoff being greater than a 50% reduction in cytokine secretion compared to activating TLR ligand alone)
- inhibition of RSV attachment to HEp2 cells [2]: prevented RSV attachment to HEp2 cells

Structure (SMILES): CCCCCCCC/C=C\CCCCCCCC(=O)O[C@H](COC(=O)CCCCCCCCCCCCCCC)COP(=O)(O)OCC(O)C(O)C(O)CO (stereo partly drawn) [POPX, sn-1-palmitoyl, sn-2-oleoyly sn-3 glycerol phosphoxylitol]
- suppression of TLR 2/1 activation (TNFα release) ([1]; 100 μg/mL lipid): modest antagonists
- suppression of TLR 2/1 activation (TNFα release) ([1]; 200 μg/mL lipid): inhibit TLR2/1 activation to almost the same extent as the bioactive lipid POPG; also recorded: strongly suppressed; also recorded: suppressed TLR 2/1 activation
- TLR2/1 antagonist activity [1]: + (cutoff being greater than a 50% reduction in cytokine secretion compared to activating TLR ligand alone)
- inhibition of RSV attachment to HEp2 cells [2]: prevented RSV attachment to HEp2 cells

Structure (SMILES): CCCCCCCCC=CCCCCCCCCOCC(COP(=O)(O)OCC(O)C(O)C(O)CO)OCCCCCCCCC=CCCCCCCCC (mixture of isomers) [18:1 DEPX, sn-1-O-octadecenyl, sn-2-O-octadecenyl sn-3 glycerol phosphoxylitol]
- suppression of TLR 2/1 activation (TNFα release) ([1]; 100 μg/mL lipid): modest antagonists
- suppression of TLR 2/1 activation (TNFα release) ([1]; 200 μg/mL lipid): inhibit TLR2/1 activation to almost the same extent as the bioactive lipid POPG; also recorded: strongly suppressed; also recorded: suppressed TLR 2/1 activation
- TLR2/1 antagonist activity [1]: + (cutoff being greater than a 50% reduction in cytokine secretion compared to activating TLR ligand alone)
- inhibition of RSV attachment to HEp2 cells [2]: inhibit attachment; also recorded: prevented RSV attachment to HEp2 cells

Structure (SMILES): CCCCCCCCCCCCCCCCCC(=O)OCC(COP(=O)(O)OCC(O)C(O)C(O)CO)OC(=O)CCCCCCCCCCCCCCCCC (stereo not drawn) [DSPX, sn-1-stearoyl, sn-2-stearoyl sn-3 glycerol phosphoxylitol]
- suppression of TLR 2/1 activation (TNFα release) ([1]; 100 μg/mL lipid): ineffective at both concentrations
- suppression of TLR 2/1 activation (TNFα release) ([1]; 200 μg/mL lipid): not effective antagonists

Structure (SMILES): CCCCCCCC/C=C\CCCCCCCC(=O)O[C@H](COC(=O)CCCCCCCCCCCCCCC)COP(=O)([O-])OCC[N+](C)(C)C [POPC, 1-palmitoyl-2-oleoyl-sn-glycero-3-phosphocholine, reference compound]
- suppression of TLR 2/1 activation (TNFα release) ([1]; 100 μg/mL lipid): unaffected
- suppression of TLR 2/1 activation (TNFα release) ([1]; 200 μg/mL lipid): unaffected
- inhibition of RSV attachment to HEp2 cells [2]: not inhibited

Structure (SMILES): CCCCCCCCC=CCCCCCCCC(=O)OCC(COP(=O)(O)OCC(O)C(O)C(O)CO)OC(=O)CCCCCCCC=CCCCCCCCC (mixture of isomers) [DOPX, sn-1-oleoyl, sn-2-oleoyl sn-3 glycerol phosphoxylitol]
- suppression of TLR 2/1 activation (TNFα release) ([1]; 100 μg/mL lipid): modest antagonists
- suppression of TLR 2/1 activation (TNFα release) ([1]; 200 μg/mL lipid): inhibit TLR2/1 activation to almost the same extent as the bioactive lipid POPG; also recorded: strongly suppressed; also recorded: suppressed TLR 2/1 activation
- TLR2/1 antagonist activity [1]: + (cutoff being greater than a 50% reduction in cytokine secretion compared to activating TLR ligand alone)
- inhibition of RSV attachment to HEp2 cells [2]: inhibit attachment

Structure (SMILES): CCCCCC=CCC=CCCCCCCCC(=O)OCC(COP(=O)(O)OCC(O)C(O)C(O)CO)OC(=O)CCCCCCCC=CCC=CCCCCC (mixture of isomers) [18:2 DLPX, sn-1-linoleoyl, sn-2-linoleoyl sn-3 glycerol phosphoxylitol]
- suppression of TLR 2/1 activation (TNFα release) ([1]; 100 μg/mL lipid): modest antagonists
- suppression of TLR 2/1 activation (TNFα release) ([1]; 200 μg/mL lipid): strongly suppressed; also recorded: suppressed TLR 2/1 activation
- suppression of TLR 2/1 activation (TNFα release) ([1]; 200 μg/mL lipid, listed as 18:2 DEPX): inhibit TLR2/1 activation to almost the same extent as the bioactive lipid POPG
- TLR2/1 antagonist activity [1]: + (cutoff being greater than a 50% reduction in cytokine secretion compared to activating TLR ligand alone)

Structure (SMILES): CCCCCCCCCCCCCCOC[C@H](COP(=O)(O)OCC(O)C(O)C(O)CO)OCCCCCCCCCCCCCC (mixture of isomers) [14:0 DEPX, sn-1-O-myristyl, sn-2-O-myristyl sn-3 glycerol phosphoxylitol]
- suppression of TLR 2/1 activation (TNFα release) ([1]; 100 μg/mL lipid): modest antagonists
- suppression of TLR 2/1 activation (TNFα release) ([1]; 200 μg/mL lipid): inhibit TLR2/1 activation to almost the same extent as the bioactive lipid POPG; also recorded: strongly suppressed; also recorded: suppressed TLR 2/1 activation
- TLR2/1 antagonist activity [1]: + (cutoff being greater than a 50% reduction in cytokine secretion compared to activating TLR ligand alone)
- inhibition of RSV attachment to HEp2 cells [2]: appears to prevent viral binding to cells; also recorded: prevented RSV from binding to the cell surface
